Measurements: patent US9561259B2, “Cyclosporin analogs” (priority 2010, dated 2017)

Key:
[1] = system: Spleen cells from C57BL/6 (responder) and BALB/c (stimulator); experiment: Mixed Lymphocyte Reaction (MLR) assay; assay type: cell-based, mice; settings: five days, 3H-thymidine incorporation
Procedure: The MLR assay is another means of estimating the immunosuppressive potential of test compounds. Female C57BL/6 and BALB/c mice, 6-8 weeks of age, were obtained from the Frederick Cancer Research and Development Center of the National Cancer Institute (Frederick, Md.). Spleens were harvested aseptically from all mice and single cell suspensions were prepared by disaggregating the cells with frosted glass slides, allowing the debris to settle, and washing the cells twice with complete medium. Complete medium consisted of RPMI 1640 medium containing 25 mM HEPES buffer (HyClone, Logan, Utah) supplemented with 10% heat-inactivated fetal bovine serum (FBS; Atlanta Biologicals, Lawrenceville, Ga.), 100 μg/mL streptomycin, 100 U/mL penicillin G, 0.25 μg/mL amphotericin B (HyClone), 2 mM L-glutamine dipeptide (HyClone), and 2×10^−5 M 2-mercaptoethanol (Sigma). Cells were washed twice and resuspended in complete medium. Cell counts were performed using a Beckman Coulter Z-1 particle counter (Fullerton, Calif.). Cell viability was determined by propidium iodide (PI) staining using an Accuri C6 flow cytometer (Ann Arbor, Mich.).
Spleen cells from C57BL/6 (H-2^b) and BALB/c (H-2^d) were used as responder (R) and stimulator (S) cells, respectively. Cells were plated in triplicate in 96-well flat microtiter plates (Costar, Cambridge, Mass.) such that each well contained 2×10^5 R and 8×10^5 S cells. Cultures were incubated in the absence or presence of various concentrations of Cs A, test compounds, or medium at 37° C. in humidified 5% CO2 for five days, pulsed with ^3H-thymidine (^3H-TdR) for the final 16 hours of incubation, and harvested using a Brandel 96-well cell harvester (Gaithersburg, Md.). Proliferation was measured by counting the radioactivity on filter mats in a Wallac 1450 Microbeta TriLux scintillation counter (Turku, Finland). […] These control cultures were incubated for 3 days under the same conditions as those described for the MLR; lymphoproliferation was determined in the same manner as described above.

[2] = Epimerization in MeOH at 50° C. (500 MHz NMR)
Description: The proton attached to the sarcosine center (adjacent to the sulfur atom) appears at ˜δ 5.9 in the R-isomer whilst in the S-isomer it moves downfield to ˜δ6.5.

Row | Substance | IC50 [1] [nM] | Epimerization (%) ([2]; time 0 days) | Epimerization (%) ([2]; time 6 days) | Epimerization (%) ([2]; time 30 days) | Epimerization (%) ([2]; time 35 days)
1 | [(R)-(3-morpholin-4-yl-propylthio)-Sar]^3 Cyclosporin A [Example 1] | 3000 | 0 | 0 | 0.2 | 
2 | [(R)-(3-ethylisopropylamino-propylthio)-Sar]^3 Cyclosporin A [Example 2] | 2800 | 0 |  |  | 0
3 | [(R)-(3-(4-methyl-piperazin-1-yl)-propylthio)-Sar]^3 Cyclosporin A [Example 3] | 3300 | 0 |  | 2 | 
